Data as given in patent US6706737B2, “Alkoxy substituted benzimidazole compounds, pharmaceutical preparations containing the same, and methods of using the same” (priority 1999, dated 2004).
Values joined by “and” are separate entries in the source; they are usually repeats but may differ in a detail not shown here. Equal entries are not always repeated.

Assay: Solubility assessment as a function of HPβCD concentration
Format: physicochemical
Protocol: Solubility studies were performed by the addition of a known mass of 5(6)-methoxy-2[[(methoxy-3,5-dimethyl-2-pyridinyl)-methyl]sulfinyl]-1H-benzimidazole and/or HP CD to a given volume of solvent system. Solubilities were determined by observation, as the maximum concentration at which 5(6)-methoxy-2-[[(4-methoxy-3,5-dimethyl-2-pyridinyl)-methyl]sulfinyl]-1H-benzimidazole completely dissolved. Additionally, concentrations of 5(6)-methoxy-2-[[(4-methoxy-3,5-dimethyl-2-pyridinyl)methyl]sulfinyl]-1H-benzimidazole and HP CD at set molar ratios were solubilized in systems of high pH (adjusted as high as 12.2, with 1N NaOH), the pH was adjusted (using 2N HCl) in a stepwise downward manner until precipitation occurred.
The solubility of 5(6)-methoxy-2-[[(4-methoxy-3,5-dimethyl-2-pyridinyl)-methyl]sulfinyl]-1H-benzimidazole was assessed as a function of HPβCD concentration in water. […] In general, the solubility of the active ingredient is influenced by solution pH.
The procedure according to Example 86 was repeated except that water with a borate buffer (pH of 8) was employed.
The procedure according to Example 86 was repeated except that water with a phosphate buffer (pH of 11) was employed.

SMILES: COc1ccc2[nH]c([S+]([O-])Cc3ncc(C)c(OC)c3C)nc2c1 (stereo not shown) [5(6)-methoxy-2-[[(4-methoxy-3,5-dimethyl-2-pyridinyl)-methyl]sulfinyl]-1H-benzimidazole]
- aqueous solubility (water): approximately 0.3 mg/mL and ~0.9 mM
- solubility as a function of HPβCD concentration (water): increase linearly
- solubility as a function of HPβCD concentration (water with a borate buffer (pH of 8)): increase linearly
- solubility as a function of HPβCD concentration (water with a phosphate buffer (pH of 11)): increase linearly
